Source: article PMC11910216, “Targeting ubiquitin-independent proteasome with small molecule increases susceptibility in pan-KRAS–mutant cancer models” (The Journal of Clinical Investigation, 2025)
Values joined by “and” are separate entries in the source; they are usually repeats but may differ in a detail not shown here. Equal entries are not always repeated.

Tests used:
[1] = system: H460 cells; assay: Apoptosis, annexin V and propidium iodide flow cytometry; assay type: cell-based, human; design: key: % of apoptotic (Annexin V positive) cells
Experimental: (§1) The Apoptosis Detection Kit (MultiSciences Biotech Co. Ltd.) was used to detect cell death according to the manufacturer’s protocol. After RLY01 treatment, both attached and floating cells were harvested, washed with PBS, suspended in binding buffer, stained in annexin V–allophycocyanin (APC) and propidium iodide (PI), and analyzed by flow cytometry. For each experiment, 1 × 10^6 cells/mL were analyzed by the flow cytometer (BD Biosciences) and analyzed with FlowJo v10.8.1 (BD Biosciences).
(§2) Supplemental Figure 8. RLY01 suppresses the clonogenic growth and induces cell apoptosis, related to F i g u re 6. (A) Representative colony formation images after treatment with RLY01 at their respective 1/4 IC50 (Low), IC50 (High) in HCT116- WT, HCT116-shREGγ cells. (B) H460 and Capan -2 (KRAS-MUT) cells were treated with RLY01 for 48 h, and the percentage of apoptotic cells (Annexin positive) was determined by Annexin- V and propidium iodide staining. Each value represents mean ± SEM (n = 3). ****p < 0.0001; p values were measured by two-way ANOVA with Tukey’s multiple-comparisons test.

[2] = system: Capan-2 cells; assay: as above; assay type: cell-based, human; design: key: % of apoptotic (Annexin V positive) cells
Experimental: as §1, §2

[3] = system: 5637 cells; assay: Cell viability assay (CCK-8); assay type: cell-based; settings: Homo sapiens; 5637, Bladder; Supplemental Table 4
Experimental: (§6) Cells were seeded into 96-well plates at a density of 1,500 cells per well. Cells were then cultivated at 37°C for different periods (0 hours, 24 hours, 48 hours, 72 hours, 96 hours). Upon measurement, 10 μL CCK-8 (Yeasen, 40203ES80) mixed with 100 μL serum-free medium was added to each well and incubated for 1 hour at 37°C. Plates were shaken, and optical density values were determined at 450 nm using a microplate reader (BioTek, Synergy Neo2).

[4] = Pharmacokinetics study; assay type: in vivo; settings: plasma, 20 mg/kg single i.p. dose, male BALB/c mice
Experimental: Pharmacokinetics of RLY01 was analyzed in male BALB/c mice (n = 3). Plasma concentration was determined using liquid chromatography–tandem mass spectrometry (LC-MS/MS) after a single intraperitoneal injection dose (20 mg/kg, i.p.) of a compound as a clear solution (2% DMSO plus 2% Tween-80 plus 96% saline) at a volume of 10 mL/kg. Blood samples were collected into a heparinized test tube at each time point (0.083, 0.25, 0.5, 1.0, 2.0, 4.0, 8.0, and 24 hours) and centrifuged at 8,000g for 10 minutes to generate plasma samples. The blood samples were temporarily put on ice. Plasma samples were put on dry ice for 2 hours and transferred to –20°C. After the completion of the last sampling, all samples were stored at –80°C. LC-MS/MS methods to quantify compound in plasma samples were developed. The samples were analyzed with an Agilent 1290 Infinity II HPLC system coupled to a 6470 LC/TQ mass spectrometer (Agilent), which was equipped with an Applied Biosystems electrospray ionization source and operated with Analysis of Mass Hunter Workstation Data Acquisition (Agilent). Chromatographic separation was fitted with an Agilent Poroshell 120 EC-C18, 2.1 × 50 mm, 1.9 μm column. The mobile phase consisted of 0.1% formic acid in water and 0.1% formic acid in acetonitrile (ACN). Standard curves for drug quantification were prepared by spiking known concentrations of the compound into control plasma. […]

[5] = system: RKO cells; assay: Cell viability assay (CCK-8); assay type: cell-based; settings: Homo sapiens, Colon, Supplemental Table 4
Experimental: as §6

[6] = system: Calu1-KRASG13D cells (G12C/G13D); assay: Cell viability assay (CellTiter-Glo), 72 hours, alone or in combination; settings: for cell viability: Calu1-KRASG13D, in % (unit assumed)
Experimental: Cells were seeded into 96-well plates at a density of 1,500 cells per well. […] Upon measurement, 10 μL CCK-8 (Yeasen, 40203ES80) mixed with 100 μL serum-free medium was added to each well and incubated for 1 hour at 37°C. Plates were shaken, and optical density values were determined at 450 nm using a microplate reader (BioTek, Synergy Neo2).
Combination index was calculated using Compusyn software version 1.0, and the synergistic effects were determined by the Chou-Talalay method ([51]).
(A and B) Cell viability assays performed with Calu1 cells infected
with retrovirus packaging KRAS (G12C, G12C/G13D or G12C/Y96D).
measured with CellTiter-Glo.

[7] = system: H441 cells; assay: Cell viability assay (CCK-8); assay type: cell-based; settings: Homo sapiens, NCI-H441; H441, Lung; Supplemental Table 4
Experimental: as §6

[8] = system: H358-KRASG13D cells; assay: Colony formation assay, RLY01 and AMG510; assay type: cell-based, human
Experimental: (§3) Cells were equally seeded into 12-well plates at a density of 2,000 cells per well. Cultivated for 6–10 days, cells were fixed with 4% polyoxymethylene and stained with 0.2% crystal violet. Images of stained colonies were taken, and the numbers of the colonies were recorded and compared within different groups. Each experiment was representative of at least 3 independent experiments. […]
(§4) by using CompuSyn software (Version 1). The averages and error bars represent the mean ± SEM from three independent experiments. (E-H) Representative colony formation images of Calu1, Calu1- KRASG13D and Calu1- KRASY96D cells (E) and H358, H358- KRASG13D and H358- KRASY96D cells (G) cell with or without RLY01 and […]
(§5) controls. Each value represents mean ± SEM (n = 3). *p < 0.05, **p < 0.01, ***p < 0.001, ****p < 0.0001; p values were measured by two-way ANOVA with Tukey’s multiple-comparisons test.

[9] = system: H358-KRASY96D cells; assay: Colony formation assay, RLY01 and AMG510; assay type: cell-based, human
Experimental: as §3, §4, §5

[10] = system: Calu1-KRASY96D cells; assay: Colony formation assay, RLY01 and AMG510; assay type: cell-based, human
Experimental: as §3, §4, §5

[11] = system: Calu1-KRASG13D cells; assay: Colony formation assay, RLY01 and AMG510; assay type: cell-based, human
Experimental: as §3, §4, §5

[12] = system: A427 cells; assay: Cell viability assay (CCK-8); assay type: cell-based; settings: Homo sapiens, A-427; A427, Lung; Supplemental Table 4
Experimental: as §6

In the case of `COc1ccc(C2C(C#N)=C(N)Oc3[nH]ncc32)cc1COc1ccc(Cl)cc1` (stereo not shown) [RLY01], the “apoptosis (flow cytometry)” value ([1]; H460, High dose) is reported as 57.16 and 57.98 and 55.96, the “apoptosis (flow cytometry)” value ([1]; H460, Low dose) is reported as 26.1 and 25.06 and 25.52 and the “apoptosis (flow cytometry)” value ([1]; H460, Medium dose) is reported as 39.95 and 39.09 and 39.14. The “apoptosis (flow cytometry)” value ([2]; Capan-2, High dose) was 43 and 42.55 and 42.1, the “apoptosis (flow cytometry)” value ([2]; Capan-2, Low dose) was 8.92 and 9.03 and 9.4 and the “apoptosis (flow cytometry)” value ([2]; Capan-2, Medium dose) was 14.03 and 14.04 and 13.83. For the same compound, the IC50 [3] was 8.64 µM, the half-life ([4]; mouse, ip) was 4.14 h and the maximum concentration [4] was 6,440 ng/mL. For the same compound, the IC50 [5] was 13.1 µM, the cell viability ([6]; 0.390625 μM) was 99.8959 and 99.2847 and the cell viability ([6]; 0.78125 μM) was 107.004 and 113.123. For the same compound, the cell viability ([6]; 1.5625 μM) was 108.207 and 97.3316, the cell viability ([6]; 3.125 μM) was 105.709 and 89.2533 and the cell viability ([6]; 6.25 μM) was 86.4232 and 85.9383. The cell viability ([6]; 12.5 μM) was 57.6642 and 58.1824, the cell viability ([6]; 25 μM) was 16.1234 and 17.3458 and the cell viability ([6]; 50 μM) was 9.294 and 9.4468. For the same compound, the cell viability ([6]; 100 μM) was 9.387 and 9.3007, the viability at 0.390625 µM ([6]; Homo sapiens, read-out: cell viability, Calu1-KRASG13D, 0.390625 μM) was 114% and the viability at 0.78125 µM ([6]; Homo sapiens, read-out: cell viability, Calu1-KRASG13D, 0.78125 μM) was 110%. The viability at 1.5625 µM ([6]; Homo sapiens, read-out: cell viability, Calu1-KRASG13D, 1.5625 μM) was 102%, the viability at 3.125 µM ([6]; Homo sapiens, read-out: cell viability, Calu1-KRASG13D, 3.125 μM) was 94% and the viability at 6.25 µM ([6]; Homo sapiens, read-out: cell viability, Calu1-KRASG13D, 6.25 μM) was 83.6%. The viability at 12.5 µM ([6]; Homo sapiens, read-out: cell viability, Calu1-KRASG13D, 12.5 μM) was 57.3%, the viability at 25 µM ([6]; Homo sapiens, read-out: cell viability, Calu1-KRASG13D, 25 μM) was 16.5% and the viability at 50 µM ([6]; Homo sapiens, read-out: cell viability, Calu1-KRASG13D, 50 μM) was 9.31%. For the same compound, the viability at 100 µM ([6]; Homo sapiens, read-out: cell viability, Calu1-KRASG13D, 100 μM) was 9.1%, the IC50 [7] was 14 µM and the “colony formation relative to DMSO” value [8] was 21.187 and 26.3594 and 20.6399. For the same compound, the “colony formation relative to DMSO” value [9] was 23.2509 and 24.3365 and 19.813, the “colony formation relative to DMSO” value [10] was 40.6617 and 32.1848 and 24.6924 and the “colony formation relative to DMSO” value [11] was 40.0491 and 33.3365 and 29.5412. For the same compound, the IC50 [12] was 13.8 µM.
